We go through 1 compound from ChEMBL document CHEMBL3832553, “DailyMed|setid=be8e0025-5726-4965-9510-e7e657687d23 | AVELOX - moxifloxacin hydrochloride tablet, coated|Lake Erie Medical Supply DBA Quality Care Products LLC”.

Common to all, as to type: ADME, organism-based
The subject of data set [1] is Homo sapiens. Description: (§1) Pharmacokinetic parameters for Moxifloxacin hydrochloride following single oral or intravenous administration of 400 mg Moxifloxacin to healthy or patient male and/or female. Also on record: dose 400 mg, route iv, route oral. Particulars: in vivo, dosed compound id 1, dosed compound name MOXIFLOXACIN, regimen Single dose, study dosing duration 1 hr, tissue Plasma; for Cmax: po.

Data set [2] can be described thus: as §1. Particulars: human, in vivo, 400 mg, dosed compound id 1, dosed compound name MOXIFLOXACIN, regimen Single dose, tissue Plasma. Also on record: dose 400 mg, route iv, route oral.
Data set [3] in a line: Pharmacokinetic parameters for Moxifloxacin hydrochloride following oral administration of Moxifloxacin. To be noted: human, in vivo, dosed compound id 1, dosed compound name MOXIFLOXACIN, tissue Plasma.
Data set [4] concerns Homo sapiens. Description: (§2) Pharmacokinetic parameters for Moxifloxacin hydrochloride following multiple oral administration of 400 mg Moxifloxacin to male Japanese or Caucasian healthy or patient male and/or female. Particulars: in vivo, dosed compound id 1, dosed compound name MOXIFLOXACIN, regimen Multiple dose, tissue Plasma. Also on record: dose 400 mg, route iv, route oral.

A short description of data set [5]: as §2. Also noted: dose 400 mg, route iv, route oral. Particulars: human, in vivo, 400 mg, dosed compound id 1, dosed compound name MOXIFLOXACIN, regimen Multiple dose, tissue Plasma.

Where “and” joins values, the source holds several entries; their conditions need not be identical. Identical values can stand only once.

Consider `COc1c(N2C[C@@H]3CCCN[C@@H]3C2)c(F)cc2c(=O)c(C(=O)O)cn(C3CC3)c12.Cl` [MOXIFLOXACIN HYDROCHLORIDE], for which the AUC in the data set on Homo sapiens [1] (gender young male and female) was determined as 39300 ng·h/mL; in data set [2] it was 36100 ng·h/mL; with Homo sapiens [4] (gender elderly male), 51800 ng·h/mL; in the data set on Homo sapiens [4] (gender young female), 49300 ng·h/mL; with Homo sapiens [4] (gender young male, study dosing duration 1 hr) it was 38000 ng·h/mL; in the data set with Homo sapiens [4] (gender young male), 48200 ng·h/mL. Further, the AUC in data set [5] (gender young male and female, read-out: AUC) was 48000 ng·h/mL; in data set [5] (read-out: AUC(0-24)), 47000 ng·h/mL. Also, the Cmax in the data set with Homo sapiens [1] (gender female) is 4500 ng/mL; with Homo sapiens [1] (gender male and female), 4300 ng/mL; with Homo sapiens [1] (gender male) it was 4400 ng/mL; in the data set on Homo sapiens [1] (gender young male and female), 3900 ng/mL; in data set [2] (po), 3100 ng/mL; with Homo sapiens [4] (gender elderly male amd female, study dosing duration 1 hr), 6100 ng/mL. The Cmax is 3800 ng/mL with Homo sapiens [4] (gender elderly male); 4600 ng/mL in the data set with Homo sapiens [4] (gender female, study dosing duration 1 hr); 4100 ng/mL and 4700 ng/mL in the data set with Homo sapiens [4] (gender male and female, study dosing duration 1 hr); 4200 ng/mL in the data set on Homo sapiens [4] (gender young female); 3600 ng/mL with Homo sapiens [4] (gender young male); 4500 ng/mL in data set [5] (gender young male and female, read-out: Cmax). In data set [5] (read-out: Cmax ss), the Cmax worked out at 4100 ng/mL. This compound had a bioavailability in data set [3] of 90%. The “AUC(0-24)” value in the data set on Homo sapiens [4] came to 47000 ng·h/mL.
